Tests used:
S. pneumoniae D39V [1] = assay: Bliss interaction score (quartile over a dose matrix) (fitness difference); higher = more antagonism (negative = synergy)
Method in brief: (§1)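 Combination data were used to infer fitness under each single drug. Fitness is the OD595 at entry into stationary phase divided by the robust mean of the plate's no-drug wells, with a cap of 1. The Bliss score is the observed minus the expected product fitness, summarised by quartiles over technical, biological and donor/recipient replicates.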

S. aureus Newman = assay: as above
Method in brief: as §1

S. aureus DSM 20231 [2] = assay: as above
Method in brief: as §1

B. subtilis 168 [3] = assay: as above
Method in brief: as §1

S. pneumoniae D39V [4] = assay: fitness (endpoint OD595 vs no drug) (fraction); higher = more growth
Method in brief: (§2)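 In 384-well plates at 37 °C, cultures began at OD595 0.01 in 30 µl, with 55 µl used for S. pneumoniae. OD595 readings every 30 min for 14 h were corrected by the first reading. Fitness divides the stationary-phase transition optical density by the robust mean of no-drug control wells. The result is capped at 1.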

B. subtilis 168 [5] = assay: as above
Method in brief: as §2

S. aureus DSM 20231 [6] = assay: as above
Method in brief: as §2
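For Bliss interaction score (quartile over a dose matrix) in this document: first quartile when negative (synergy) and third quartile when positive (antagonism).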

CN(C)C(=O)C(CCN1CCC(O)(c2ccc(Cl)cc2)CC1)(c1ccccc1)c1ccccc1 [Loperamide] + C[n+]1ccc(-c2cc[n+](C)cc2)cc1 [Paraquat]
Conditions | Bliss interaction score
B. subtilis 168 [3] | -0.103
S. aureus DSM 20231 [2] | 0.177
S. aureus Newman | 0.0662
S. pneumoniae D39V [1] | 0.0549

fitness
Conditions | partner 1.25 µg/mL | partner 1.5 µg/mL | partner 2.5 µg/mL | partner 3 µg/mL | partner 5 µg/mL | partner 6 µg/mL
B. subtilis 168 [5], first compound 25 µg/mL | 0.798 | – | 0.684 | – | 0.537 | –
B. subtilis 168 [5], first compound 50 µg/mL | 0.0367 | – | 0.0251 | – | 0.0432 | –
B. subtilis 168 [5], first compound 100 µg/mL | 0.0324 | – | 0.0267 | – | 0.0238 | –
S. pneumoniae D39V [4], first compound 17.14 µg/mL | – | 0.994 | – | 0.984 | – | 0.922
S. pneumoniae D39V [4], first compound 34.28 µg/mL | – | 0.972 | – | 0.973 | – | 0.883

fitness, S. pneumoniae D39V [4], one replicate
Conditions | first compound 20 µg/mL | first compound 40 µg/mL | first compound 68.57 µg/mL | first compound 80 µg/mL
partner 1.5 µg/mL | ≥ 1 | ≥ 1 | 0.934 | ≥ 1
partner 3 µg/mL | ≥ 1 | ≥ 1 | 0.931 | ≥ 1
partner 6 µg/mL | ≥ 1 | ≥ 1 | 0.853 | ≥ 1

CN(C)C(=O)C(CCN1CCC(O)(c2ccc(Cl)cc2)CC1)(c1ccccc1)c1ccccc1 [Loperamide] + Cc1cc(NS(=O)(=O)c2ccc(N)cc2)no1 [Sulfamethoxazol]
Conditions | Bliss interaction score
B. subtilis 168 [3] | -0.178
S. aureus DSM 20231 [2] | -0.143
S. aureus Newman | 0.0631
S. pneumoniae D39V [1] | 0.0594

fitness
Conditions | partner 1 µg/mL | partner 2 µg/mL | partner 4 µg/mL
B. subtilis 168 [5], first compound 25 µg/mL | – | – | 0.857
B. subtilis 168 [5], first compound 100 µg/mL | – | 0.0238 | 0.156
S. pneumoniae D39V [4], first compound 17.14 µg/mL | 0.92 | 0.936 | 0.989
S. pneumoniae D39V [4], first compound 34.28 µg/mL | 0.953 | 0.95 | 0.998

fitness, one replicate
Conditions | first compound 20 µg/mL | first compound 25 µg/mL | first compound 40 µg/mL | first compound 50 µg/mL | first compound 68.57 µg/mL | first compound 80 µg/mL | first compound 100 µg/mL
B. subtilis 168 [5], partner 0.5 µg/mL | – | 0.0806 | – | 0.009 | – | – | 0.0009
S. pneumoniae D39V [4], partner 1 µg/mL | ≥ 1 | – | ≥ 1 | – | 0.967 | 0.249 | –
S. pneumoniae D39V [4], partner 2 µg/mL | ≥ 1 | – | ≥ 1 | – | 0.968 | 0.89 | –
S. pneumoniae D39V [4], partner 4 µg/mL | 0.941 | – | 0.942 | – | ≥ 1 | 0.752 | –

CN(C)C(=O)C(CCN1CCC(O)(c2ccc(Cl)cc2)CC1)(c1ccccc1)c1ccccc1 [Loperamide] + Cc1ncc([N+](=O)[O-])n1CCO [Metronidazole]
Conditions | Bliss interaction score
B. subtilis 168 [3] | 0.268
S. aureus DSM 20231 [2] | 0.0627
S. aureus Newman | 0.064
S. pneumoniae D39V [1] | 0.0877

Conditions | fitness
B. subtilis 168 [5], first compound 25 µg/mL, partner 0.625 µg/mL | 0.918
B. subtilis 168 [5], first compound 25 µg/mL, partner 1.25 µg/mL | 0.891
B. subtilis 168 [5], first compound 25 µg/mL, partner 2.5 µg/mL | 0.895
B. subtilis 168 [5], first compound 100 µg/mL, partner 1.25 µg/mL | 0.214
B. subtilis 168 [5], first compound 100 µg/mL, partner 2.5 µg/mL | 0.203
S. pneumoniae D39V [4], first compound 17.14 µg/mL, partner 1.25 µg/mL | 0.983
S. pneumoniae D39V [4], first compound 17.14 µg/mL, partner 2.5 µg/mL | ≥ 1
S. pneumoniae D39V [4], first compound 17.14 µg/mL, partner 5 µg/mL | 0.99
S. pneumoniae D39V [4], first compound 20 µg/mL, partner 1.073 µg/mL | ≥ 1
S. pneumoniae D39V [4], first compound 20 µg/mL, partner 2.145 µg/mL | 0.921
S. pneumoniae D39V [4], first compound 20 µg/mL, partner 4.29 µg/mL | 0.973
S. pneumoniae D39V [4], first compound 34.28 µg/mL, partner 1.25 µg/mL | 0.99
S. pneumoniae D39V [4], first compound 34.28 µg/mL, partner 2.5 µg/mL | ≥ 1
S. pneumoniae D39V [4], first compound 34.28 µg/mL, partner 5 µg/mL | 0.979
S. pneumoniae D39V [4], first compound 40 µg/mL, partner 1.073 µg/mL | ≥ 1
S. pneumoniae D39V [4], first compound 40 µg/mL, partner 4.29 µg/mL | 0.96
S. pneumoniae D39V [4], first compound 80 µg/mL, partner 1.073 µg/mL | 0.938
S. pneumoniae D39V [4], first compound 80 µg/mL, partner 2.145 µg/mL | 0.898
S. pneumoniae D39V [4], first compound 80 µg/mL, partner 4.29 µg/mL | 0.95

S. pneumoniae D39V [4], first compound 68.57 µg/mL, one replicate
Conditions | fitness
partner 1.25 µg/mL | ≥ 1
partner 2.5 µg/mL | 0.944
partner 5 µg/mL | ≥ 1

CN(C)C(=O)C(CCN1CCC(O)(c2ccc(Cl)cc2)CC1)(c1ccccc1)c1ccccc1 [Loperamide] + Cc1onc(-c2ccccc2)c1C(=O)N[C@@H]1C(=O)N2[C@@H]1SC(C)(C)[C@@H]2C(=O)O [Oxacillin]
Conditions | Bliss interaction score
B. subtilis 168 [3] | -0.0924
S. aureus DSM 20231 [2] | -0.0615
S. aureus Newman | 0.077
S. pneumoniae D39V [1] | -0.33

Conditions | fitness
B. subtilis 168 [5], first compound 25 µg/mL, partner 0.002 µg/mL | 0.749
B. subtilis 168 [5], first compound 25 µg/mL, partner 0.004 µg/mL | 0.697
B. subtilis 168 [5], first compound 50 µg/mL, partner 0.002 µg/mL | 0.0423
B. subtilis 168 [5], first compound 50 µg/mL, partner 0.004 µg/mL | 0.0371
B. subtilis 168 [5], first compound 50 µg/mL, partner 0.008 µg/mL | 0.0519
B. subtilis 168 [5], first compound 100 µg/mL, partner 0.002 µg/mL | 0.0346
B. subtilis 168 [5], first compound 100 µg/mL, partner 0.004 µg/mL | 0.0357
B. subtilis 168 [5], first compound 100 µg/mL, partner 0.008 µg/mL | 0.0283
S. pneumoniae D39V [4], first compound 17.14 µg/mL, partner 0.01 µg/mL | 0.976
S. pneumoniae D39V [4], first compound 17.14 µg/mL, partner 0.02 µg/mL | 0.878
S. pneumoniae D39V [4], first compound 20 µg/mL, partner 0.01 µg/mL | 0.99
S. pneumoniae D39V [4], first compound 20 µg/mL, partner 0.02 µg/mL | 0.869
S. pneumoniae D39V [4], first compound 20 µg/mL, partner 0.04 µg/mL | 0.156
S. pneumoniae D39V [4], first compound 34.28 µg/mL, partner 0.01 µg/mL | 0.908
S. pneumoniae D39V [4], first compound 40 µg/mL, partner 0.01 µg/mL | 0.859
S. pneumoniae D39V [4], first compound 40 µg/mL, partner 0.04 µg/mL | 0.109
S. pneumoniae D39V [4], first compound 80 µg/mL, partner 0.04 µg/mL | 0.0757

fitness, one replicate
Conditions | partner 0.01 µg/mL | partner 0.02 µg/mL | partner 0.04 µg/mL | partner 0.075 µg/mL | partner 0.15 µg/mL | partner 0.3 µg/mL
B. subtilis 168 [5], first compound 25 µg/mL | – | – | – | 0.0507 | 0.0511 | 0.0488
B. subtilis 168 [5], first compound 50 µg/mL | – | – | – | 0.0519 | 0.0509 | 0.0494
B. subtilis 168 [5], first compound 100 µg/mL | – | – | – | 0.0598 | 0.0504 | 0.0472
S. pneumoniae D39V [4], first compound 68.57 µg/mL | 0.979 | 0.901 | 0.618 | – | – | –

CCN(CC)CCOC(=O)c1ccc(N)cc1 [Procaine] + COc1cc(Cc2cnc(N)nc2N)cc(OC)c1OC [Trimethoprim]
Conditions | Bliss interaction score
B. subtilis 168 [3] | 0.0837
S. aureus DSM 20231 [2] | -0.0543
S. aureus Newman | 0.0842
S. pneumoniae D39V [1] | 0.0954

fitness
Conditions | first compound 85.5 µg/mL | first compound 171 µg/mL | first compound 342 µg/mL
B. subtilis 168 [5], partner 0.25 µg/mL | 0.704 | 0.688 | 0.69
B. subtilis 168 [5], partner 0.5 µg/mL | 0.531 | 0.562 | 0.498
S. aureus DSM 20231 [6], partner 0.125 µg/mL | 0.669 | 0.744 | 0.709
S. aureus DSM 20231 [6], partner 0.25 µg/mL | 0.565 | 0.607 | 0.613
S. aureus DSM 20231 [6], partner 0.5 µg/mL | 0.118 | 0.123 | 0.144
S. aureus DSM 20231 [6], partner 1 µg/mL | 0.0274 | 0.0353 | 0.021

fitness, B. subtilis 168 [5], one replicate
Conditions | partner 0.1 µg/mL | partner 0.125 µg/mL | partner 0.2 µg/mL | partner 0.4 µg/mL | partner 1 µg/mL | partner 2 µg/mL
first compound 85.5 µg/mL | 0.877 | 0.771 | 0.722 | 0.555 | 0.393 | 0.277
first compound 171 µg/mL | 0.836 | 0.775 | 0.783 | 0.544 | 0.444 | 0.295
first compound 342 µg/mL | 0.83 | 0.742 | 0.832 | 0.555 | 0.37 | 0.383

— the supplement of paper PMC10627819
